Test results taken from paper PMC8632988, “Inhibition of SYK and cSrc kinases can protect bone and cartilage in preclinical models of osteoarthritis and rheumatoid arthritis” (Scientific Reports, 2021).

Columns and labels:
[1] = test system: mongrel rats, AIA model; assay: Adjuvant-induced arthritis in rats; type: in vivo; settings: for Animal death / The increase in the volume of the paws relative to the initial level: Diclofenac 8 mg/kg QD intragastric
Protocol: Rat adjuvant-induced arthritis (AIA) model was performed at Pharmenterprises, Russia as described previously^3 and approved by Ethics Committee of Pharmenterprises. Male 10 week old mongrel rats were divided into eleven groups: negative control (#1), positive control (#2) and nine treatment groups (#3–11), ten […] in each group. Group #1 was left intact, while subplantar injection of 0.1 mL of Complete Freund’s adjuvant (CFA, Sigma) was made on day 0 at right paws of rats in groups […]. […] Disease progression was monitored by measuring volumes of the right (involved) and left (non-involved) paws on days 0, 14, 18, 21, 25, and 28.

[2] = test system: Sprague-Dowley rats, medial meniscal tear (MMT) model; assay: Surgically induced meniscal tear OA in rats; type: in vivo, rat; settings: 0.1 mg/kg subcutaneously once every three days, day 21
Protocol: Medial meniscal tear (MMT) model was performed at Pharmenterprises, Russia according to the published procedure[31] and approved by Ethics Committee of Pharmenterprises. Male 4-month old Sprague-Dowley rats were anesthetized with Zoletil (Vibrac, France) and Xylazine (Interchemie werken "De Adelaar" BV, Netherlands) mixture. The medial collateral ligament was transected, and the medial meniscus was grasped with a hemostat and reflected proximally toward the femur. The meniscus was transected and then skin was closed with sutures. 60–90 min after surgery rats were subcutaneously injected with flexoprofen (VIC GROUP, Russia). Treatment groups (20 rats each) were intragastrically treated with MT-SYK-03 (100 and 500 mg/kg) or vehicle control (0.5% methylcellulose solution) 24 h before OA induction and then once daily for 21 day. Active control group was subcutaneously injected with zoledronic acid (0.1 mg/kg) 24 h before OA induction and then once every three days for 21 day. After 21 day animals were sacrificed; surgically operated right knee was removed and used for image analysis.

[3] = test system: Wistar rats, MIA osteoarthritis model; assay: Monosodium iodoacetate induced osteoarthritis in rats; type: in vivo, rat
Protocol: Monosodium iodoacetate (MIA) osteoarthritis model was performed at Pharmenterprises, Russia according to the known procedure[32] and approved by Ethics Committee of Pharmenterprises. Male 10 week old Wistar rats were divided into eight groups: negative control (#1), positive control (#2) and six treatment groups (#3–8), ten rats in each group. Group #1 was left intact while rats in groups #2–8 were anesthetized on the day 0 with intraperitoneal injection of Zoletil and Xylazine mixture and given a single intra-articular injection of MIA through the infrapatellar ligament of the right knee. Rats were treated as follows: (#1, #2) 0.5% solution of methylcellulose in PBS (pH = 3) as vehicle control, (#3, #5) 100 mg/kg MT-SYK-03, (#4, #6) 500 mg/kg MT-SYK-03, (#7) 50 mg/kg nalgesin and (#8) 0.1 mg/kg zoledronic acid. Rats in groups #1–4 received treatment intragastrically QD, 25 and 1 h before the MIA injection, and then daily until the end of the study on the day 28. Rats in groups #5–6 received treatment intragastrically QD from the day 7 until the end of the study. Rats in group #7 were treated QD starting on the day 14 and until the end of the study. Finally, rats in group #8 were treated subcutaneously immediately after the MIA injection and then every third day until the study end. Disease progression was monitored by measuring mechanical hyperalgesia, mechanical allodynia and grip strength of hind paws on the days 14, 21, and 28, just before the treatment, and 1, 3, 6 h after it.

[4] = Zoledronic acid 0.1 mg/kg, 0–28 days once three days, 14 day, 1 hour after admin.
[5] = Zoledronic acid 0.1 mg/kg, 0–28 days once three days, 14 day, 3 hours after admin.
[6] = Zoledronic acid 0.1 mg/kg, 0–28 days once three days, 21 day, 1 hour after admin.
[7] = Zoledronic acid 0.1 mg/kg, 0–28 days once three days, 21 day, 3 hours after admin.
[8] = Zoledronic acid 0.1 mg/kg, 0–28 days once three days, 28 day, 1 hour after admin.
[9] = Zoledronic acid 0.1 mg/kg, 0–28 days once three days, 28 day, 3 hours after admin.

**Q.** With O=C(O)Cc1ccccc1Nc1c(Cl)cccc1Cl [diclofenac, reference compound] as the compound, how does the Animal death ([1]; 14 days) read?
**A.** 0%

**Q.** And the Animal death ([1]; 18 days)?
**A.** 0%

**Q.** What about the Animal death ([1]; 21 days) of the same compound?
**A.** 10%

**Q.** And the Animal death ([1]; 25 days)?
**A.** 20%

**Q.** And the Animal death ([1]; 28 days)?
**A.** 20%

**Q.** And the “The increase in the volume of the paws relative to the initial level” value ([1]; non-involved paws, 14 days)?
**A.** 14.28±0.98& %

**Q.** And the “The increase in the volume of the paws relative to the initial level” value ([1]; non-involved paws, 18 days)?
**A.** 22.01±2.42& %

**Q.** And the “The increase in the volume of the paws relative to the initial level” value ([1]; non-involved paws, 21 days)?
**A.** 22.85±2.82& %

**Q.** And the “The increase in the volume of the paws relative to the initial level” value ([1]; non-involved paws, 25 days)?
**A.** 19.99±2.76& %

**Q.** What about the “The increase in the volume of the paws relative to the initial level” value ([1]; non-involved paws, 28 days) of the same compound?
**A.** 20.8±3.06& %

**Q.** What about the “Volume of non-involved paws” value ([1]; rat AIA, diclofenac, day 28) of the same compound?
**A.** no statistically significant effect

**Q.** What about the Rats died ([1]; rat AIA, sodium diclofenac) of the same compound?
**A.** 20%

**Q.** What about the “The increase in the volume of the paws relative to the initial level” value ([1]; treated paws, 14 days) of the same compound?
**A.** 85.1 ± 8.01 & n = 10%

**Q.** What about the “The increase in the volume of the paws relative to the initial level” value ([1]; treated paws, 18 days) of the same compound?
**A.** 90.16 ± 9.34 & n = 10%

**Q.** What about the “The increase in the volume of the paws relative to the initial level” value ([1]; treated paws, 21 days) of the same compound?
**A.** 89.64 ± 9.99 & n = 9%

**Q.** And the “The increase in the volume of the paws relative to the initial level” value ([1]; treated paws, 25 days)?
**A.** 88.04 ± 12.52 &. n = 8%

**Q.** What about the “The increase in the volume of the paws relative to the initial level” value ([1]; treated paws, 28 days) of the same compound?
**A.** 92.37 ± 13.78 & n=8%

**Q.** Which Lesion area [2] does the source give for O=P(O)(O)C(O)(Cn1ccnc1)P(=O)(O)O [zoledronic acid, reference compound] here?
**A.** 25.3 ± 2.2^& %

**Q.** What about the Lesion depth [2] of the same compound?
**A.** 50.5 ± 7.1%

**Q.** And the “hind paws grip strength” value [3, 4]?
**A.** 60.4 ± 10.4 & % from the initial one

**Q.** And the “mechanical allodynia pain threshold” value [3, 4]?
**A.** 100.6±8 & % from the initial one

**Q.** What about the mechanical hyperalgesia [3, 4] of the same compound?
**A.** 68.1 ± 6.3 & % from the initial one

**Q.** And the “hind paws grip strength” value [3, 5]?
**A.** 75.4 ± 7.7 & % from the initial one

**Q.** And the “mechanical allodynia pain threshold” value [3, 5]?
**A.** 101.3±12.3 & % from the initial one

**Q.** And the mechanical hyperalgesia [3, 5]?
**A.** 68.3 ± 3.5 & % from the initial one

**Q.** What about the “hind paws grip strength” value [3, 6] of the same compound?
**A.** 96 ± 6.8 % from the initial one

**Q.** What about the “mechanical allodynia pain threshold” value [3, 6] of the same compound?
**A.** 108.2±7.9 & % from the initial one

**Q.** And the mechanical hyperalgesia [3, 6]?
**A.** 85.6 ± 5.6 % from the initial one

**Q.** What about the “hind paws grip strength” value [3, 7] of the same compound?
**A.** 84.3 ± 7.5 % from the initial one

**Q.** And the “mechanical allodynia pain threshold” value [3, 7]?
**A.** 106.8±6.5 & % from the initial one

**Q.** What about the mechanical hyperalgesia [3, 7] of the same compound?
**A.** 83.4 ± 5.2 % from the initial one

**Q.** What about the “hind paws grip strength” value [3, 8] of the same compound?
**A.** 92.8 ± 7.6 % from the initial one

**Q.** And the “mechanical allodynia pain threshold” value [3, 8]?
**A.** 112.4±8.6 & % from the initial one

**Q.** And the mechanical hyperalgesia [3, 8]?
**A.** 81.8 ± 3.7 & % from the initial one

**Q.** And the “hind paws grip strength” value [3, 9]?
**A.** 93.9 ± 15.5 % from the initial one

**Q.** And the “mechanical allodynia pain threshold” value [3, 9]?
**A.** 126.6±15.4 & % from the initial one

**Q.** And the mechanical hyperalgesia [3, 9]?
**A.** 84.2 ± 7.4 % from the initial one

**Q.** What about the “hind paws grip strength” value ([3]; rat MIA, days 14, 21, 28) of the same compound?
**A.** stable statistically significant improvements, but only on day 28

**Q.** And the “Mechanical hyperalgesia pain threshold” value ([3]; rat MIA, reference drugs)?
**A.** positive effects, but they were statistically significant only on days 21 and 28

**Q.** What about the “mechanical allodynia pain threshold” value ([3]; rat MIA, reference drugs) of the same compound?
**A.** increased the pain threshold
